Holding throughout (assay type): cell-based
The test system of experiment [1] is S. aureus (ATCC 6538). Nature of the experiment: Direct inoculation of SCDB broth tubes, growth in presence of antibiotic. The conditions noted are these: ciprofloxacin 100 μg/mL in SCDB, 200 cfu.
A further experiment concerns E. coli (ATCC 25922). Nature of the experiment: Simulated air monitoring: antibiotic disc zone of inhibition on SCDA. The conditions noted are these: Escherichia coli, disc: ofloxacin 5 ug. On the procedure: (§1) One method of monitoring air in an antibiotic manufacturing plant is to impact air onto an agar surface collecting both microorganisms and antibiotic on the agar surface. This test was simulated by spreading microorganisms over an agar surface containing varying amounts of magnesium cation and then placing disks containing antibiotics onto the agar surface. The zone of inhibition around each disk was measured to give an indication of the ability of the medium to neutralize the effect of the antibiotic (method followed is similar to the susceptibility disc test used in clinical microbiology). S. aureus (ATCC 6538), P. aeruginosa (ATCC 9027) or E. coli (ATCC 25922) were spread on the agar surface of SCDA containing 0.1M, 0.2M, 0.3M, 0.4M or 0.5M magnesium cation. Discs impregnated with a known amount of antibiotic were then placed onto the bacteria on the agar plate. Plates were incubated and the zone of inhibition of bacterial growth was measured.

Experiment [2] concerns P. aeruginosa (ATCC 9027). The description is as above. The conditions noted are these: Pseudomonas aeruginosa, disc: ofloxacin 5 ug. On the procedure: as §1
Experiment [3] deals with S. aureus (ATCC 6538). Described as above. The note with it: Staphylococcus aureus, disc: ofloxacin 5 ug. On the procedure: as §1
Setting [4] is: ATCC25922, 0.0 M cation in SCDA, streptomycin 10 ug, doxycycline 30 ug.
Setting [5] is: ATCC25922, 0.1M magnesium cation in SCDA, streptomycin 10 ug, doxycycline 30 ug.
[6] abbreviates: ATCC25922, 0.3M magnesium cation in SCDA, streptomycin 10 ug, doxycycline 30 ug.
The mark [7] stands for this setting: ATCC25922, 0.5M magnesium cation in SCDA, streptomycin 10 ug, doxycycline 30 ug.
The mark [8] stands for this setting: ATCC9027, 0.0 M cation in SCDA, streptomycin 10 ug, doxycycline 30 ug.
Setting [9] is: ATCC9027, 0.1M magnesium cation in SCDA, streptomycin 10 ug, doxycycline 30 ug.
[10] abbreviates: ATCC9027, 0.3M magnesium cation in SCDA, streptomycin 10 ug, doxycycline 30 ug.
The mark [11] stands for this setting: ATCC9027, 0.5M magnesium cation in SCDA, streptomycin 10 ug, doxycycline 30 ug.
Setting [12] is: ATCC6538, 0.0 M cation in SCDA, streptomycin 10 ug, doxycycline 30 ug.
The mark [13] stands for this setting: ATCC6538, 0.1M magnesium cation in SCDA, streptomycin 10 ug, doxycycline 30 ug.
[14] abbreviates: ATCC6538, 0.3M magnesium cation in SCDA, streptomycin 10 ug, doxycycline 30 ug.
[15] abbreviates: ATCC6538, 0.5M magnesium cation in SCDA, streptomycin 10 ug, doxycycline 30 ug.

Turning to `O=C(O)c1cn(C2CC2)c2cc(N3CCNCC3)c(F)cc2c1=O` [Ciprofloxacin, ciprofloxacin], the “Result (growth of microorganism)” value in the experiment with S. aureus (ATCC 6538) [1] (0.5 M magnesium cation added to broth) is listed as “Growth”; with S. aureus (ATCC 6538) [1] (divalent cation added to broth: None), “No growth”.
Consider `C[C@H]1c2cccc(O)c2C(=O)C2=C(O)[C@]3(O)C(=O)C(C(N)=O)=C(O)[C@@H](N(C)C)[C@@H]3[C@@H](O)[C@@H]21` [Doxycycline, doxycycline], for which the zone of inhibition (as a rule, the extent of the growth-free halo in a diffusion test) at 30 µg/disc is 18 mm with E. coli (ATCC 25922) (setting [4]); 6 mm with E. coli (ATCC 25922) (setting [5]); 6 mm in the experiment on E. coli (ATCC 25922) (setting [6]); 6 mm in the experiment on E. coli (ATCC 25922) (setting [7]); 6 mm in experiment [2] (setting [8]); 6 mm in experiment [2] (setting [9]). The zone of inhibition at 30 µg/disc in experiment [2] (setting [10]) was 6 mm; in experiment [2] (setting [11]), 6 mm; in the experiment with S. aureus (ATCC 6538) [3] (setting [12]), 25 mm; with S. aureus (ATCC 6538) [3] (setting [13]), 13 mm; in the experiment on S. aureus (ATCC 6538) [3] (setting [14]) it was 11 mm; with S. aureus (ATCC 6538) [3] (setting [15]) it was 13 mm.
As to `CC1COc2c(N3CCN(C)CC3)c(F)cc3c(=O)c(C(=O)O)cn1c23` (centres unmarked) [Ofloxacin, ofloxacin], the zone of inhibition at 5 µg/disc was 26 mm in the experiment on E. coli (ATCC 25922) (setting [4]); 13 mm with E. coli (ATCC 25922) (setting [5]); 13 mm in the experiment with E. coli (ATCC 25922) (ATCC25922, 0.2M magnesium cation in SCDA); 13 mm in the experiment with E. coli (ATCC 25922) (setting [6]); 12 mm with E. coli (ATCC 25922) (ATCC25922, 0.4M magnesium cation in SCDA); 12 mm in the experiment on E. coli (ATCC 25922) (setting [7]). The zone of inhibition at 5 µg/disc in experiment [2] (setting [8]) was 20 mm; in experiment [2] (setting [9]) it was 6 mm; in experiment [2] (ATCC9027, 0.2M magnesium cation in SCDA), 6 mm; in experiment [2] (setting [10]), 6 mm; in experiment [2] (ATCC9027, 0.4M magnesium cation in SCDA), 6 mm; in experiment [2] (setting [11]), 6 mm. For the same compound, the zone of inhibition at 5 µg/disc in the experiment with S. aureus (ATCC 6538) [3] (setting [12]) was 23 mm; with S. aureus (ATCC 6538) [3] (setting [13]) it was 11 mm; in the experiment on S. aureus (ATCC 6538) [3] (ATCC6538, 0.2M magnesium cation in SCDA), 8 mm; in the experiment on S. aureus (ATCC 6538) [3] (setting [14]), 6 mm; in the experiment with S. aureus (ATCC 6538) [3] (ATCC6538, 0.4M magnesium cation in SCDA) it was 7 mm; in the experiment with S. aureus (ATCC 6538) [3] (setting [15]), 6 mm.
Regarding `[H]/N=C(/N)N[C@H]1[C@H](O)[C@@H](O)[C@H](O[C@@H]2O[C@@H](C)[C@](O)(C=O)[C@H]2O[C@@H]2O[C@@H](CO)[C@H](O)[C@@H](O)[C@@H]2NC)[C@@H](N/C(N)=N\[H])[C@@H]1O` [Streptomycin, streptomycin], the zone of inhibition at 10 µg/disc in the experiment on E. coli (ATCC 25922) (setting [4]) is 14 mm; with E. coli (ATCC 25922) (setting [5]), 12 mm; with E. coli (ATCC 25922) (setting [6]), 9 mm; in the experiment with E. coli (ATCC 25922) (setting [7]), 6 mm; in experiment [2] (setting [8]), 11 mm; in experiment [2] (setting [9]), 6 mm. The zone of inhibition at 10 µg/disc in experiment [2] (setting [10]) is 6 mm; in experiment [2] (setting [11]) it was 6 mm; with S. aureus (ATCC 6538) [3] (setting [12]) it was 17 mm; with S. aureus (ATCC 6538) [3] (setting [13]) it was 12 mm; in the experiment with S. aureus (ATCC 6538) [3] (setting [14]), 7 mm; in the experiment on S. aureus (ATCC 6538) [3] (setting [15]), 8 mm.

These data come from patent US20100075368A1, “Media for recovery of microorganism in the presence of antibiotics” (Millipore Corporation, priority 2004, published 2010).
